These results are taken from ChEMBL document CHEMBL5370565, “Inhibition of Cysteine Proteases via Thiol-Michael Addition Explains the Anti-SARS-CoV-2 and Bioactive Properties of Arteannuin B” (J Nat Prod, 2023).

Calls of active or inactive are those of the source. The calls are words filed in the database; no cut-off is given here.

In one assay the test system is SARS-CoV-2. Kind of assay: Antiviral activity against SARS-CoV-2 GX_P2V infected in African green monkey Vero E6 cells assessed as reduction in viral yield pretreated with cells for 2 hrs followed by viral infection and measured after 72 hrs by qRT-PCR analysis. The class given is functional, organism-based. As to conditions: Severe acute respiratory syndrome coronavirus 2, GX_P2V, Vero C1008. For orientation: Quantitative PCR measures a nucleic acid by following its amplification.

Another assay has as its target Caspase-8 (Homo sapiens) (UniProt Q14790). Kind of assay: Inhibition of C-terminal 6his tagged human Caspase 8 activity expressed in Escherichia coli BL21 (DE3) cells at 50 uM preincubated for 30 mins by LC-MS analysis.
The next assay concerns Glioblastoma cell line. Kind of assay: Cytotoxicity against glioblastoma (unknown origin) cells assessed as reduction in cell viability at 35 uM incubated for 24 hrs by eFluor 780 fixable viability dye based flow cytometric analysis. It is filed as functional.
Assay [1] has as its system Severe acute respiratory syndrome coronavirus 2. Kind of assay: Inhibition of C-terminal 6his-tagged/N-terminal strepII-tagged SARS-CoV-2 NSP5 expressed in Escherichia coli BL21 (DE3) cells using (4-Fluoro-F)LQS as substrate assessed as (4-fluoro-F)L production at 48 uM preincubated with compound for 60 mins followed by substrate addition and measured after 300 mins by LC-MS analysis relative to control. As to conditions: time 360.0 min.

Chain of Caspase-8 (Homo sapiens) (Q14790 217-374 limits assumed): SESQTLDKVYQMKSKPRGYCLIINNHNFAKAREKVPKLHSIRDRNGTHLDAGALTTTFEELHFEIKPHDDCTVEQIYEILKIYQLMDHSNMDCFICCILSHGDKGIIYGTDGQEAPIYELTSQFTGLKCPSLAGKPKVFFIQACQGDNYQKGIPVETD
Chain of Caspase-8 (Homo sapiens) (Q14790 385-479 limits assumed): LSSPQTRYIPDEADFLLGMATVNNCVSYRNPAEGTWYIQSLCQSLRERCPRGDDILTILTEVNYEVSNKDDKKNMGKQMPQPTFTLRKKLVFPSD

As to `C=C1C(=O)O[C@@]23C1CC[C@@H](C)[C@@H]2CC[C@@]1(C)O[C@@H]31` (stereo not given in full), the 50% effective concentration (EC50) (in general, the midpoint of the concentration-response curve) in the assay on SARS-CoV-2 worked out at 8.84 µM. Further, on Caspase-8 (Homo sapiens), the inhibition – broadly, the drop in the measured response relative to a control, in per cent – was “Active”. Further, the outcome in the assay on Glioblastoma cell line was Active. For the same molecule, in assay [1], the inhibition came out at 45%.

As for `C[C@@H]1CC[C@H]2[C@H](C)C(=O)O[C@]23[C@H]1CC[C@@]1(C)O[C@@H]31`, the outcome in the assay with Glioblastoma cell line was inactive.
